Article PMC12090182, “Repurposing of the RIPK1-Selective Benzo[1,4]oxazepin-4-one Scaffold for the Development of a Type III LIMK1/2 Inhibitor” (ACS Chemical Biology, 2025)

Key:
Assay in all cases: biochemical
Format in all cases: binding
[1] = target: 468 kinases including some pathogenic mutants (Homo sapiens, UniProt P42345); details: MTOR (Entrez MTOR), 1000 nM; read-out: Percent Control
[2] = target: 468 kinases including some pathogenic mutants (Homo sapiens, UniProt Q9UK32); details: read-out: Percent Control
[3] = target: 468 kinases including some pathogenic mutants (Homo sapiens, UniProt Q5S007, G2019S); details: read-out: Percent Control
[4] = target: 468 kinases including some pathogenic mutants (Homo sapiens, UniProt Q9UM73, L1196M); details: read-out: Percent Control
[5] = target: 468 kinases including some pathogenic mutants (Homo sapiens, UniProt P09619); details: PDGFRB (Entrez PDGFRB), 100 nM; read-out: Percent Control
[6] = target: 468 kinases including some pathogenic mutants (Homo sapiens, UniProt Q9BUB5); details: MKNK1 (Entrez MKNK1), 100 nM; read-out: Percent Control
[7] = target: 468 kinases including some pathogenic mutants (Homo sapiens, UniProt P21127); details: CDC2L1 (Entrez CDK11B), 100 nM; read-out: Percent Control
[8] = target: 468 kinases including some pathogenic mutants (Homo sapiens, UniProt Q07002); details: read-out: Percent Control
[9] = target: 468 kinases including some pathogenic mutants (Homo sapiens, UniProt P21860); details: ERBB3 (Entrez ERBB3), 100 nM; read-out: Percent Control
[10] = target: 468 kinases including some pathogenic mutants (Homo sapiens, UniProt Q5VT25); details: MRCKA (Entrez CDC42BPA), 100 nM; read-out: Percent Control
[11] = target: 468 kinases including some pathogenic mutants (Homo sapiens, UniProt Q14289); details: PYK2 (Entrez PTK2B), 100 nM; read-out: Percent Control
[12] = target: 468 kinases including some pathogenic mutants (Homo sapiens, UniProt Q9H2G2); details: SLK (Entrez SLK), 100 nM; read-out: Percent Control
[13] = target: 468 kinases including some pathogenic mutants (Homo sapiens, UniProt P07949); details: RET (Entrez RET), 1000 nM; read-out: Percent Control
[14] = target: 468 kinases including some pathogenic mutants (Homo sapiens, UniProt P04629); details: TRKA (Entrez NTRK1), 100 nM; read-out: Percent Control
[15] = target: 468 kinases including some pathogenic mutants (Homo sapiens, UniProt Q6ZN16); details: MAP3K15 (Entrez MAP3K15), 1000 nM; read-out: Percent Control
[16] = target: 468 kinases including some pathogenic mutants (Homo sapiens, UniProt P36888, D835Y); details: read-out: Percent Control
[17] = target: 468 kinases including some pathogenic mutants (Homo sapiens, UniProt P48729); details: CSNK1A1 (Entrez CSNK1A1), 100 nM; read-out: Percent Control
[18] = target: 468 kinases including some pathogenic mutants (Homo sapiens, UniProt P29323); details: EPHB2 (Entrez EPHB2), 100 nM; read-out: Percent Control
[19] = target: 468 kinases including some pathogenic mutants (Homo sapiens, UniProt P24941); details: CDK2 (Entrez CDK2), 100 nM; read-out: Percent Control
[20] = target: 468 kinases including some pathogenic mutants (Homo sapiens, UniProt P36897); details: TGFBR1 (Entrez TGFBR1), 1000 nM; read-out: Percent Control
[21] = target: 468 kinases including some pathogenic mutants (Homo sapiens, UniProt Q9UQ88); details: CDC2L2 (Entrez CDC2L2), 100 nM; read-out: Percent Control
[22] = target: 468 kinases including some pathogenic mutants (Homo sapiens, UniProt P06239); details: LCK (Entrez LCK), 100 nM; read-out: Percent Control
[23] = target: 468 kinases including some pathogenic mutants (Homo sapiens, UniProt Q9UEE5); details: DRAK1 (Entrez STK17A), 100 nM; read-out: Percent Control
[24] = target: 468 kinases including some pathogenic mutants (Homo sapiens, UniProt P12931); details: SRC (Entrez SRC), 1000 nM; read-out: Percent Control
[25] = target: 468 kinases including some pathogenic mutants (Homo sapiens, UniProt Q6P2M8); details: CAMK1B (Entrez PNCK), 100 nM; read-out: Percent Control
[26] = target: 468 kinases including some pathogenic mutants (Homo sapiens, UniProt Q99558); details: NIK (Entrez MAP3K14), 1000 nM; read-out: Percent Control
[27] = target: 468 kinases including some pathogenic mutants (Homo sapiens, UniProt Q02779); details: MLK2 (Entrez MAP3K10), 100 nM; read-out: Percent Control
[28] = target: 468 kinases including some pathogenic mutants (Homo sapiens, UniProt P42336, E545K); details: read-out: Percent Control
[29] = target: 468 kinases including some pathogenic mutants (Homo sapiens, UniProt Q96NX5); details: CAMK1G (Entrez CAMK1G), 100 nM; read-out: Percent Control

468 kinases including some pathogenic mutants (Homo sapiens, UniProt Q9UK32), sequence (Q9UK32 whole entry, stated change not applied): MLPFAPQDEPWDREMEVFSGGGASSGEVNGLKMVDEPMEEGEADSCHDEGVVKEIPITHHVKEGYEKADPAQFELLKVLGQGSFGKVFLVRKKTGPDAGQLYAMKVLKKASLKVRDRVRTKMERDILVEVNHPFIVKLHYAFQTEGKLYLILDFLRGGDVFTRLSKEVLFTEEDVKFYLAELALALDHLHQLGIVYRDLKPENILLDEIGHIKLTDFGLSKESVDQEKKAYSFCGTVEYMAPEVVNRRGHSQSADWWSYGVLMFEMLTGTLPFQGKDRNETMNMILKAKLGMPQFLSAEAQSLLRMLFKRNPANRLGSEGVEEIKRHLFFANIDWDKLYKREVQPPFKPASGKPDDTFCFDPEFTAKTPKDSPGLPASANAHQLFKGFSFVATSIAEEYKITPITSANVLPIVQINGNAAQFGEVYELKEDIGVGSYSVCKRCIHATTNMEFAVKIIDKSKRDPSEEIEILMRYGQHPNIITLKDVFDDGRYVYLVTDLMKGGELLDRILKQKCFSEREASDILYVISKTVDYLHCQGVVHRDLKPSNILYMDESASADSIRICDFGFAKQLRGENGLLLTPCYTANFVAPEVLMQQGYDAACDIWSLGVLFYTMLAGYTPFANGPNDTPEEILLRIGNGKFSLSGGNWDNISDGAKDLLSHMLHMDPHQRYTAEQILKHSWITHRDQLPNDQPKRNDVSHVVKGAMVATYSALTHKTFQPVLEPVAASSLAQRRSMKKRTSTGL
468 kinases including some pathogenic mutants (Homo sapiens, UniProt Q02779), sequence (Q02779 whole entry, stated change not applied): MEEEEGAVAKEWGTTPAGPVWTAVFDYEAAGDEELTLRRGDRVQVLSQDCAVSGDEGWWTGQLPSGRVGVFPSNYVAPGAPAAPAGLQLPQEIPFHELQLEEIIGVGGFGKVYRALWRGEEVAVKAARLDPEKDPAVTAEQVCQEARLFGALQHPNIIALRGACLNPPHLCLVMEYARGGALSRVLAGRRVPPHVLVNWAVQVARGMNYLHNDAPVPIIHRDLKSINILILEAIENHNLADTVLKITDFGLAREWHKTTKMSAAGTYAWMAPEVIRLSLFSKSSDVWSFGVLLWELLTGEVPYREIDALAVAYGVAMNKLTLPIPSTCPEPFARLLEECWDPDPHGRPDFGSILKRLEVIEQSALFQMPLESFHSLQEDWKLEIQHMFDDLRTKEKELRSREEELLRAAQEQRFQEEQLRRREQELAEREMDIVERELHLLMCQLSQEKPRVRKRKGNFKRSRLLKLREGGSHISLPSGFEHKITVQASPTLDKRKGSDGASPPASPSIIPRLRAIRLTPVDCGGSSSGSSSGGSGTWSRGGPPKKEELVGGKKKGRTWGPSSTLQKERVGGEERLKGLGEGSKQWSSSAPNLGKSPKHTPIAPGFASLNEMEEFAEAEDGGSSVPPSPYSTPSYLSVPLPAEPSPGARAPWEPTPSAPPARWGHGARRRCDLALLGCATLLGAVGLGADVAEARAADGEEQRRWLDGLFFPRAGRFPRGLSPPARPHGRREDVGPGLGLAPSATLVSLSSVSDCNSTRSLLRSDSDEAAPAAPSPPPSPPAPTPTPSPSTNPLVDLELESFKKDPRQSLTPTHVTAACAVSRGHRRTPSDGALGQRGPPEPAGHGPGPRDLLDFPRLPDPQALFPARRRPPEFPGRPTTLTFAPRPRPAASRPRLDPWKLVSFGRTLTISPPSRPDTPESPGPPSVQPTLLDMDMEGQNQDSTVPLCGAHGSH
468 kinases including some pathogenic mutants (Homo sapiens, UniProt Q5S007, G2019S), sequence (Q5S007 whole entry G2019S): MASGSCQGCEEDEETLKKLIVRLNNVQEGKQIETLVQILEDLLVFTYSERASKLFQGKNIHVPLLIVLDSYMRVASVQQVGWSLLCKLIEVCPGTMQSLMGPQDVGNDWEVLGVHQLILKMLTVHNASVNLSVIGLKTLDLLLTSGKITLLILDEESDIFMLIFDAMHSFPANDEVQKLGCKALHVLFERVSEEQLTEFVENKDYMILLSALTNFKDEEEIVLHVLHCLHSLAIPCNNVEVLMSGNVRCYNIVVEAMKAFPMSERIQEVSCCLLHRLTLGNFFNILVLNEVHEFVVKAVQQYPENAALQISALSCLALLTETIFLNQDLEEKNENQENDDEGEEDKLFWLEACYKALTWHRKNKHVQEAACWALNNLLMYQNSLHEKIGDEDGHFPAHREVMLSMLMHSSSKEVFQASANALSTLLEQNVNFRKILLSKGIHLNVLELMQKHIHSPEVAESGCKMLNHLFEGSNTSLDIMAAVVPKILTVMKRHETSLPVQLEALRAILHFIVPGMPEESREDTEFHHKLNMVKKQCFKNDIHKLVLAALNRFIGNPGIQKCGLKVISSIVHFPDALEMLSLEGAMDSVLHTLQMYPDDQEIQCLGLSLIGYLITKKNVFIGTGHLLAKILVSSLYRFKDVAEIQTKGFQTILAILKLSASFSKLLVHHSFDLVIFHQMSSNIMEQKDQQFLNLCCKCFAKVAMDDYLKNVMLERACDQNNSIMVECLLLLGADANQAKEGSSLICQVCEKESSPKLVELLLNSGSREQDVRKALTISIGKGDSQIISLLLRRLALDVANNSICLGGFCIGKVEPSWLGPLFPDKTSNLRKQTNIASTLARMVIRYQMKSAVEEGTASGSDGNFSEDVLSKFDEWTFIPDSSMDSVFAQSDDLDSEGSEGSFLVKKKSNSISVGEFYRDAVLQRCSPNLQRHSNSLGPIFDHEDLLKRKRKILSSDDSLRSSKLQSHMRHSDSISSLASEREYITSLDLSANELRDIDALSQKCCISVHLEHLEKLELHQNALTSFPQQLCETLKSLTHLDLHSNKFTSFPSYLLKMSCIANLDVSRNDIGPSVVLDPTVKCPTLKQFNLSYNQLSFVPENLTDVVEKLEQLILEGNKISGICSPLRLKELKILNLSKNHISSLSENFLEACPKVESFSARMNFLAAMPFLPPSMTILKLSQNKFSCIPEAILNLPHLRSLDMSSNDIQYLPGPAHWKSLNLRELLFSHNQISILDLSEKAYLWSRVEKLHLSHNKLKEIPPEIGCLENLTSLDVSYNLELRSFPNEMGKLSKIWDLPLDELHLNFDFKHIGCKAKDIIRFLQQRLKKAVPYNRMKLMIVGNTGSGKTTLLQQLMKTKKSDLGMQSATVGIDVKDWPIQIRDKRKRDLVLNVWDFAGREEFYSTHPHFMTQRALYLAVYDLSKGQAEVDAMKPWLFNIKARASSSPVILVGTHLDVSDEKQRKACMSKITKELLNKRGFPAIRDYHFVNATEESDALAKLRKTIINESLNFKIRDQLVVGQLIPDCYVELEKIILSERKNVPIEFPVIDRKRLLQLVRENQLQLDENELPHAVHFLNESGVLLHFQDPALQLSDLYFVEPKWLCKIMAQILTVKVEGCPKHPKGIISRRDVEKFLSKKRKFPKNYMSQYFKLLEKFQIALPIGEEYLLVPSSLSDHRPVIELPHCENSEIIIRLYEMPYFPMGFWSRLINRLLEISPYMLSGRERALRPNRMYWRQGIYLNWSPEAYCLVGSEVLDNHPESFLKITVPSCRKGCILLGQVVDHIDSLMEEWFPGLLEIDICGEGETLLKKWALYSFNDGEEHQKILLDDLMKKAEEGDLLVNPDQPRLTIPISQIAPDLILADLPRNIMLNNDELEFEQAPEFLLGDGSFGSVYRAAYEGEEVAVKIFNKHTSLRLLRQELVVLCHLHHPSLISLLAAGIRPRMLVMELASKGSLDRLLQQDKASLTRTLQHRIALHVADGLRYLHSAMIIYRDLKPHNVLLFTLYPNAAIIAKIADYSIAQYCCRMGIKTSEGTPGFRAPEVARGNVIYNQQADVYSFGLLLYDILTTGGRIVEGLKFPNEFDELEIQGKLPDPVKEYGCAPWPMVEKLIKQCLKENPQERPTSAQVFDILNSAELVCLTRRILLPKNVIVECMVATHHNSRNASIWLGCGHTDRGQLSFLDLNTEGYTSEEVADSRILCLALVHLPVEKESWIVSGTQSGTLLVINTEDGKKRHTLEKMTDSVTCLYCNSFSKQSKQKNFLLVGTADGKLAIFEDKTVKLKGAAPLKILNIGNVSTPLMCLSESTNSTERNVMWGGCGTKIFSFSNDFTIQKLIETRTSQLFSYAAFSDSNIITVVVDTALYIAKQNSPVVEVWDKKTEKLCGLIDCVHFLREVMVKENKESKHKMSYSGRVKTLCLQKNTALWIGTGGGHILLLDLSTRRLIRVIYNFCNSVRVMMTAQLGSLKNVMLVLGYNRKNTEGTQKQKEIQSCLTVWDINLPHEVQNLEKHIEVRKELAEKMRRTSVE
468 kinases including some pathogenic mutants (Homo sapiens, UniProt Q9UEE5), sequence (Q9UEE5 whole entry, change not shown): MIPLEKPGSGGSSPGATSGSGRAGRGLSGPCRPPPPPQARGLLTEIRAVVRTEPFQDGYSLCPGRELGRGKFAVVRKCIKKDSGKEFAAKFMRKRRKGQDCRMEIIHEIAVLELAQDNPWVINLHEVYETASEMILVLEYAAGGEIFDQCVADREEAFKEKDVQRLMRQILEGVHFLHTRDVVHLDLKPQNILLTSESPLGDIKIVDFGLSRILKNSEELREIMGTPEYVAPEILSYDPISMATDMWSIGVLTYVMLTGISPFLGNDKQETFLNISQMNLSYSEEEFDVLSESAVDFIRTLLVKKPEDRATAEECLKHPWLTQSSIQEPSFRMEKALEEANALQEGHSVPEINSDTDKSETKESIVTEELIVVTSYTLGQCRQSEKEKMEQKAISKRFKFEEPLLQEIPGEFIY
468 kinases including some pathogenic mutants (Homo sapiens, UniProt P36897), sequence (P36897 34-503, change not shown): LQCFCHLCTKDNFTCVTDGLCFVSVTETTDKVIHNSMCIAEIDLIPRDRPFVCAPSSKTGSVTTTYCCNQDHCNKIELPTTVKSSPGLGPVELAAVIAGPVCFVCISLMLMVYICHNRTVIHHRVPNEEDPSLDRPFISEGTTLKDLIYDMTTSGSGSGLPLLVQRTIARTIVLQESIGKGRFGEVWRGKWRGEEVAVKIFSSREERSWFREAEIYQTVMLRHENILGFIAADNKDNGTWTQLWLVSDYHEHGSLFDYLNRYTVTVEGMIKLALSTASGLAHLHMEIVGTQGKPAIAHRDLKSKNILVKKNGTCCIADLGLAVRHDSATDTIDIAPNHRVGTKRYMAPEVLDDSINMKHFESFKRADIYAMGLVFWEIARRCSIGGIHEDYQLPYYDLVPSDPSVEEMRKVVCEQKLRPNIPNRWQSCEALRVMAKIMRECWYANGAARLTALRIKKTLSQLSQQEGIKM

Question: How did the remaining activity at 1 µM [1] turn out when `CN1C(=O)[C@@H](N2CCc3c(nn(Cc4ccccc4)c3C(N)=O)C2=O)COc2cc(Cl)ccc21` [Compound 10, (S)-2-benzyl-6-(8-chloro-5-methyl-4-oxo-2,3,4,5-tetrahydrobenzo[b][1,4]oxazepin-3-yl)-7-oxo-4,5,6,7-tetrahydro-2H-pyrazolo[3,4-c]pyridine-3-carboxamide] was run?
Answer: Its remaining activity at 1 µM is 100%.

Question: What about the remaining activity at 1 µM ([2]; RSK4(Kin.Dom.1-N-terminal) (Entrez RPS6KA6), 1000 nM) of the same compound?
Answer: Its remaining activity at 1 µM is 100%.

Question: What about the remaining activity at 0.1 µM ([2]; RSK4(Kin.Dom.2-C-terminal) (Entrez RPS6KA6), 100 nM) of the same compound?
Answer: Its remaining activity at 0.1 µM is 90%.

Question: And the remaining activity at 0.1 µM [3]?
Answer: Its remaining activity at 0.1 µM is 85%.

Question: And the remaining activity at 0.1 µM [4]?
Answer: The remaining activity at 0.1 µM was 89%.

Question: What about the remaining activity at 0.1 µM [5] of the same compound?
Answer: Its remaining activity at 0.1 µM is 69%.

Question: And the remaining activity at 0.1 µM [6]?
Answer: The remaining activity at 0.1 µM was 85%.

Question: What about the remaining activity at 0.1 µM [7] of the same compound?
Answer: The remaining activity at 0.1 µM was 88%.

Question: And the remaining activity at 0.1 µM [8]?
Answer: Its remaining activity at 0.1 µM is 100%.

Question: What about the remaining activity at 0.1 µM [9] of the same compound?
Answer: The remaining activity at 0.1 µM was 84%.

Question: What about the remaining activity at 0.1 µM [10] of the same compound?
Answer: Its remaining activity at 0.1 µM is 73%.

Question: What about the remaining activity at 0.1 µM [11] of the same compound?
Answer: Its remaining activity at 0.1 µM is 88%.

Question: And the remaining activity at 0.1 µM [12]?
Answer: The remaining activity at 0.1 µM was 89%.

Question: What about the remaining activity at 1 µM [13] of the same compound?
Answer: Its remaining activity at 1 µM is 100%.

Question: And the remaining activity at 0.1 µM [14]?
Answer: Its remaining activity at 0.1 µM is 99%.

Question: And the remaining activity at 1 µM [15]?
Answer: The remaining activity at 1 µM was 100%.

Question: What about the remaining activity at 0.1 µM [16] of the same compound?
Answer: The remaining activity at 0.1 µM was 95%.

Question: And the remaining activity at 0.1 µM [17]?
Answer: Its remaining activity at 0.1 µM is 73%.

Question: What about the remaining activity at 0.1 µM [18] of the same compound?
Answer: Its remaining activity at 0.1 µM is 98%.

Question: What about the remaining activity at 0.1 µM [19] of the same compound?
Answer: The remaining activity at 0.1 µM was 83%.

Question: And the remaining activity at 1 µM [20]?
Answer: The remaining activity at 1 µM was 100%.

Question: What about the remaining activity at 0.1 µM [21] of the same compound?
Answer: Its remaining activity at 0.1 µM is 100%.

Question: And the remaining activity at 0.1 µM [22]?
Answer: Its remaining activity at 0.1 µM is 100%.

Question: And the remaining activity at 0.1 µM [23]?
Answer: The remaining activity at 0.1 µM was 84%.

Question: What about the remaining activity at 1 µM [24] of the same compound?
Answer: The remaining activity at 1 µM was 100%.

Question: What about the remaining activity at 0.1 µM [25] of the same compound?
Answer: Its remaining activity at 0.1 µM is 79%.

Question: What about the remaining activity at 1 µM [26] of the same compound?
Answer: The remaining activity at 1 µM was 100%.

Question: What about the remaining activity at 0.1 µM [27] of the same compound?
Answer: Its remaining activity at 0.1 µM is 64%.

Question: And the remaining activity at 0.1 µM [28]?
Answer: The remaining activity at 0.1 µM was 75%.

Question: And the remaining activity at 0.1 µM [29]?
Answer: Its remaining activity at 0.1 µM is 72%.
